Data as given in PMC7549214 (Malaria Journal, 2020).

Columns and labels:
[1] = test system: cytochrome P450 (CYP) isoforms (any of those tested); test: CYP inhibition, isoforms tested (summary); assay type: in vitro ADME; details: any of the CYP isoforms tested
[2] = Repeated dose 14-day toxicity study;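 also: rats dosed once daily for 14 days, test item in Tween 80 plus methylcellulose vehicle at 10 mL/kg bw, compared against vehicle-treated G1 controls by one-way ANOVA with Dunnett test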
Description: The animal grouping was done by the method of body weight stratification and randomization. The animals procured for the study were weighed and grouped into body weight ranges. […] Tween 80 (0.1% (v/v)) + methylcellulose (0.5% (w/v)) was used as a vehicle and the test item was dosed at a dose volume of 10 mL/kg bw. The animals were dosed once a day for a period of 14 consecutive days. The test item was administered at concentrations as mentioned in the Table for G2, G3, G4, G5 groups whereas vehicle was administered to G1 group (vehicle control) at the volume of 10 mL/kg body weight. […] On days 2 to 13, animals were dosed in the fed state. During the study, observations were made for clinical signs and mortality, body weights, gross necropsy and organ weights. The data were subjected to statistical analyses using GraphPad Prism version 5.00, GraphPad Software. One way ANOVA with Dunnets post-test were done for different treatment groups compared with the control group data.

hERG = hERG (Homo sapiens, UniProt Q12809); test: hERG binding
Chain of hERG (Q12809 whole entry): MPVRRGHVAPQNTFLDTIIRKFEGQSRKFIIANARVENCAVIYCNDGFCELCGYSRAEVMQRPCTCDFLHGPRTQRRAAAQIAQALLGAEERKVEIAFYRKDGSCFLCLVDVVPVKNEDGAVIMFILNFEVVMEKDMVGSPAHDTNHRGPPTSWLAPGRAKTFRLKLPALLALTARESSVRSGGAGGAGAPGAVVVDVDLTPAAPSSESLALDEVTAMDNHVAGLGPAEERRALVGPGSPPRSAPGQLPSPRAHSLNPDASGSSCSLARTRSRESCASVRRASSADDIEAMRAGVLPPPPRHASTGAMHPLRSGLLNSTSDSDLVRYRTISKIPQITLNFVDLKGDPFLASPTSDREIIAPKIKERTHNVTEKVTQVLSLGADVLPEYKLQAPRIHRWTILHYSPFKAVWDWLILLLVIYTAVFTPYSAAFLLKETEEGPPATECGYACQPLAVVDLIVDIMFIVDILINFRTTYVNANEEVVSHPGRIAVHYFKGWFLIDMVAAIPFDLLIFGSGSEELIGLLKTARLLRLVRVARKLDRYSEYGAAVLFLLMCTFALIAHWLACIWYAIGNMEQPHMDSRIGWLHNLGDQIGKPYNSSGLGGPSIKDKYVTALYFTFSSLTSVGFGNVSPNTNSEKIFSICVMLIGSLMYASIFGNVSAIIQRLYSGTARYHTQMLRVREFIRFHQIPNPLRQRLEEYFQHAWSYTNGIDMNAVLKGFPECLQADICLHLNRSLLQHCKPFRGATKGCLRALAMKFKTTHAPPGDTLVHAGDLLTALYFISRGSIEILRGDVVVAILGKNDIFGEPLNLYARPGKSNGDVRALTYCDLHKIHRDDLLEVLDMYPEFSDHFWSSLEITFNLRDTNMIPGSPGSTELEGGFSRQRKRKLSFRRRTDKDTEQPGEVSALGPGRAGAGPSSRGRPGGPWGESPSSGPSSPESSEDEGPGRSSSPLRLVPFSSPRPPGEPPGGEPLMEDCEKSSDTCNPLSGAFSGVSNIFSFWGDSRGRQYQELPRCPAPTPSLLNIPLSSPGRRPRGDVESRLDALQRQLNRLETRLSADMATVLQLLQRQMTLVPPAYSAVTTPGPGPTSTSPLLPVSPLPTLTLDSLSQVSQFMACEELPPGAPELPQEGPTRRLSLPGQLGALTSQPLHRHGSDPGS

With `O=C(NO)c1ccc(Cn2cc(-c3ccc(CN4CCCC4)cc3)nn2)cc1` [FNDR-20123] the IC50 [1] was over 25 µM, the “Toxic effects on body weights and organ weights” value ([2]; 14-day oral, 50, 100 and 150 mg/kg body weight, male and female rats) was “no adverse toxic effects on body weights and organ weights” and the “Adverse clinical signs or mortality” value ([2]; 14-day repeat dose oral gavage, both sexes) was “did not reveal any adverse clinical signs or mortality”. The “Abnormality in body weight or gross organ pathology” value ([2]; 14-day, 100 mg/kg daily dose) was “did not show any abnormality in body weight or gross organ pathology”, the Fasting body weight ([2]; female, G2 50 mg/kg) was 149.51 g and the Body weight ([2]; female, G2 50 mg/kg bw, day 1) was 146.45 g. It also gave a Body weight ([2]; female, G2 50 mg/kg bw, day 7) of 150.70 g, a Body weight ([2]; female, G2 50 mg/kg bw, day 14) of 161.49 g and a Body weight ([2]; female, G3 100 mg/kg bw, day 1) of 146.70 g. For the same compound, the Body weight ([2]; female, G3 100 mg/kg bw, day 7) was 145.63 g, the Body weight ([2]; female, G3 100 mg/kg bw, day 14) was 158.43 g and the Fasting body weight ([2]; female, G4 150 mg/kg) was 134.25 g. It also gave a Body weight ([2]; female, G4 150 mg/kg bw, day 7) of 139.82 g, a Body weight ([2]; female, G4 150 mg/kg bw, day 14) of 142.91 g and a Fasting body weight ([2]; male, G2 50 mg/kg) of 189.75 g. The Body weight ([2]; male, G2 50 mg/kg bw, day 1) was 166.04 g, the Body weight ([2]; male, G2 50 mg/kg bw, day 7) was 190.40 g and the Body weight ([2]; male, G2 50 mg/kg bw, day 14) was 209.30 g. It also gave a Fasting body weight ([2]; male, G3 100 mg/kg) of 163.82 g, a Body weight ([2]; male, G3 100 mg/kg bw, day 1) of 166.39 g and a Body weight ([2]; male, G3 100 mg/kg bw, day 7) of 173.72 g. For the same compound, the Body weight ([2]; male, G3 100 mg/kg bw, day 14) was 177.16 g, the Fasting body weight ([2]; male, G4 150 mg/kg) was 174.95 g and the Body weight ([2]; male, G4 150 mg/kg bw, day 1) was 170.86 g. It also gave a Body weight ([2]; male, G4 150 mg/kg bw, day 7) of 180.10 g, a Body weight ([2]; male, G4 150 mg/kg bw, day 14) of 188.27 g and an IC50 (hERG) of over 100 µM.
